Laboratory results as given in patent US20240294489A1 (Captor Therapeutics S.A., priority 2020, published 2024).

Assays:
Assay type in all cases: cell-based
EOL-1 = experiment: Cell viability, additional cell lines (CellTiter-Glo), EOL-1; details: Homo sapiens, EOL1; EOL-1, 72 h; read-out: Absolute IC50
Protocol: (§1) Tumor cells are grown at 37° C. in a humidified atmosphere with 5% CO2 in RPMI 1640 medium, supplemented with 10% (v/v) fetal calf serum and 50 μg/ml gentamicin for up to 20 passages, and are passaged once or twice weekly.
(§2) Cells are harvested from exponential phase cultures, counted and plated in 96 well flat-bottom microtiter plates at a cell density depending on the cell line's growth rate (4,000-20,000 cells/well depending on the cell line's growth rate, up to 60,000 for hematological cancer cell lines) in RPMI 1640 medium supplemented with 10% (v/v) fetal calf serum and 50 μg/ml gentamicin (140 μl/well). Cultures are incubated at 37° C. and 5% CO2 in a humidified atmosphere. After 24 h, 10 μl of test compounds or control medium are added and left on the cells for another 72 h. Compounds are serially diluted in DMSO, transferred in cell culture medium, and added to the assay plates by using a Tecan Freedom EVO 200 robotic platform. The DMSO concentration is kept constant at 0.3% v/v across the assay plate. Viability of cells is quantified by the CellTiter-Glo® cell viability assay (Promega G8462). After incubation of cells, 100 μl of CellTiter-Glo® One Solution Assay reagent are added to each well. Plates are shaken for 2 minutes to induce cell lysis and incubated for 20 minutes prior to reading luminescence (LU) by using the EnVision® Xcite multilabel plate reader (Perkin Elmer). […]

IM-9 = experiment: Cell viability, additional cell lines (CellTiter-Glo), IM-9; details: Homo sapiens, IM-9, 72 h; read-out: Absolute IC50
Protocol: as §1, §2

KG-1 = experiment: Cell viability, additional cell lines (CellTiter-Glo), KG-1; details: Homo sapiens, KG-1, 72 h
Protocol: as §1, §2

OPM-2 = experiment: Cell viability, additional cell lines (CellTiter-Glo), OPM-2; details: Homo sapiens, OPM-2, 72 h; read-out: Absolute IC50
Protocol: as §1, §2

SALL4 [1] = target: T1, SALL4 (Homo sapiens, UniProt Q96SW2+Q9UJQ4); experiment: SALL4 degradation in the Kelly cell line, time course; details: Kelly cells, 0.1 μM, 3, 6, 12, 24, 48 and 72 h, FIG. 2
T1 construct: SALL4 degradation in the Kelly cell line was investigated; endogenous in cells; host or cells: Kelly
Protocol: Kelly cells were maintained in RPMI-1640 medium, supplemented with penicillin/streptomycin and 10% Fetal Bovine Serum (FBS). Cells were seeded on 6- or 12-well plates, and the compounds to be tested were added at the desired concentration range. Final DMSO concentration was 0.25%. After incubation (37° C., 5% CO2) for a specified period of time, cells were harvested, washed and cell lysates were prepared using RIPA lysis buffer. The amount of protein was determined via BCA assay, and the appropriate quantity was then loaded on the precast gel for the protein separation. After primary and secondary Ab staining, the membranes were washed and signals developed. The densitometry analysis was implemented to obtain the numeric values used later in the protein level evaluation process.

MOLP-2 = experiment: Cell viability, additional cell lines (CellTiter-Glo), MOLP-2; details: MOLP-2, 72 h
Protocol: as §1, §2

SALL4 [2] = target: T1, SALL4; experiment: SALL4 degradation assay, Kelly cell line (Western blot densitometry); details: Kelly cells, 100 nM, 24 h, average from n ≥ 2 experiments
Protocol: (§3) Cells were seeded on 6- or 12-well plates, and the compounds to be tested were added at the desired concentration range. […] After 24 h incubation (37° C., 5% CO2), cells were harvested, washed and cell lysates were prepared using RIPA lysis buffer. The amount of protein was determined via BCA assay, and the appropriate quantity was then loaded on the precast gel for the protein separation. After primary and secondary Ab staining, the membranes were washed and signals developed. The densitometry analysis was implemented to obtain the numeric values used later in the protein level evaluation process.

MOLM-6 = experiment: Cell viability, additional cell lines (CellTiter-Glo), MOLM-6; details: MOLM-6, 72 h
Protocol: as §1, §2

OCI-AML2 = experiment: Cell viability, additional cell lines (CellTiter-Glo), OCI-AML2; details: Homo sapiens, OCI-AML2, 72 h; read-out: Absolute IC50
Protocol: as §1, §2

Aiolos (IKZF3) = target: T2, Aiolos (IKZF3) (Homo sapiens, UniProt Q96SW2+Q9UKT9); experiment: Aiolos degradation assay, H929 cell line; details: H929 cells, 20 μM, 24 h
T2 construct: Aiolos degradation in the H929 cell line was investigated; endogenous in cells; host or cells: H929
Protocol: as §3

Kelly cells = experiment: Cell survival clonogenic assay, Kelly; details: 0.1-10 μM, crystal violet staining after 9-10 days
Protocol: To determine the ability of a single cell to form a colony (defined as a cluster of at least 50 cells), Kelly and Hep3B cells were maintained in RPM11640 (Kelly) or EMEM (Hep3B) medium, supplemented with penicillin/streptomycin and 10% FBS. The cells were counted and seeded on the 6-well plates, at the density of 1×10^3 cells per well, the compounds to be tested were added at the desired concentration range, and the cells were cultured at 37° C./5% CO2. After colony formation (9-10 days), the cells were washed and treated with 6.0% glutaraldehyde and 0.5% crystal violet mix for 30 min., followed by rinsing with water and drying at room temperature (RT).

SU-DHL-1 = experiment: Cell viability, additional cell lines (CellTiter-Glo), SU-DHL-1; details: Homo sapiens, SU-DHL-1, 72 h; read-out: Absolute IC50
Protocol: as §1, §2

[3] = 9.5 μM, read-out: Test/Control viability at 9.5 μM

T1 sequence (Q9UJQ4 whole entry): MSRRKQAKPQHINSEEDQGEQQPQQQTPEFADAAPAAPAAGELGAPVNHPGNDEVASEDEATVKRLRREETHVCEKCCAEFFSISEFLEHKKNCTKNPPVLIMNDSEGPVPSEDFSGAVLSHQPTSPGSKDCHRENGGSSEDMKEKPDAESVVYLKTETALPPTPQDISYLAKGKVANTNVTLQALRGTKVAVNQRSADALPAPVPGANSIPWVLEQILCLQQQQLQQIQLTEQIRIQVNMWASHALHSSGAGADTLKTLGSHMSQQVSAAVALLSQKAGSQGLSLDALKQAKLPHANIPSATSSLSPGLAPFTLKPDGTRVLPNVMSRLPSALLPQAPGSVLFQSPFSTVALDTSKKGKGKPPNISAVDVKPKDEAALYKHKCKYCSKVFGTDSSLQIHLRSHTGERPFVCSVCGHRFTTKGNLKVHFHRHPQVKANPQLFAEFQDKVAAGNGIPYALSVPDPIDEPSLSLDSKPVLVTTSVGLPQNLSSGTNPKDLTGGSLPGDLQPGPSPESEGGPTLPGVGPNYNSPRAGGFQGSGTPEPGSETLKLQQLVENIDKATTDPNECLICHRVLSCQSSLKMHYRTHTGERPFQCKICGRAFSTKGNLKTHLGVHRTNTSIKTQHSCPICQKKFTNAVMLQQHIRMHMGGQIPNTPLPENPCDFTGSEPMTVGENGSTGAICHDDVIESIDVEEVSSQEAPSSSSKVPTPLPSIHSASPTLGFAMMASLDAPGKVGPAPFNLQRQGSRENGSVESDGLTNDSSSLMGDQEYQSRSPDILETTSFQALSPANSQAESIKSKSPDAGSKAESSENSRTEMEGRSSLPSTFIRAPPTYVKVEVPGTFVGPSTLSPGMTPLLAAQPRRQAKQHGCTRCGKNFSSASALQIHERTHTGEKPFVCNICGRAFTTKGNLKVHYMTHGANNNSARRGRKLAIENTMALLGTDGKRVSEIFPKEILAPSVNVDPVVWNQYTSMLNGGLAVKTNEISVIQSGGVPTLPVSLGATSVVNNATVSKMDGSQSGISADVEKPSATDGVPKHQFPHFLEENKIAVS
T1 sequence (Q96SW2 whole entry): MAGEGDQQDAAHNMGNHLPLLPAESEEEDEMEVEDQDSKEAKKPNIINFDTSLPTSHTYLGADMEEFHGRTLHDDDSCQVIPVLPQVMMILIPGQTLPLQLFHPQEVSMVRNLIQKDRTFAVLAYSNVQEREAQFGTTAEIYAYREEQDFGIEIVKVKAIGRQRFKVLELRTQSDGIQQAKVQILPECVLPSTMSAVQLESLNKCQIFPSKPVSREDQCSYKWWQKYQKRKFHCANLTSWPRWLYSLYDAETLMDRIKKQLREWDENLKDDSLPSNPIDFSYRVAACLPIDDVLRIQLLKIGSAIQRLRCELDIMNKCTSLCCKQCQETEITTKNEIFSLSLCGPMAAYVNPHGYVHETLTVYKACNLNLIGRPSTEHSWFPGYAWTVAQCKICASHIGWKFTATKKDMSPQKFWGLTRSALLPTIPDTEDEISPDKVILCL
T1 sequence (Q16531 whole entry partner): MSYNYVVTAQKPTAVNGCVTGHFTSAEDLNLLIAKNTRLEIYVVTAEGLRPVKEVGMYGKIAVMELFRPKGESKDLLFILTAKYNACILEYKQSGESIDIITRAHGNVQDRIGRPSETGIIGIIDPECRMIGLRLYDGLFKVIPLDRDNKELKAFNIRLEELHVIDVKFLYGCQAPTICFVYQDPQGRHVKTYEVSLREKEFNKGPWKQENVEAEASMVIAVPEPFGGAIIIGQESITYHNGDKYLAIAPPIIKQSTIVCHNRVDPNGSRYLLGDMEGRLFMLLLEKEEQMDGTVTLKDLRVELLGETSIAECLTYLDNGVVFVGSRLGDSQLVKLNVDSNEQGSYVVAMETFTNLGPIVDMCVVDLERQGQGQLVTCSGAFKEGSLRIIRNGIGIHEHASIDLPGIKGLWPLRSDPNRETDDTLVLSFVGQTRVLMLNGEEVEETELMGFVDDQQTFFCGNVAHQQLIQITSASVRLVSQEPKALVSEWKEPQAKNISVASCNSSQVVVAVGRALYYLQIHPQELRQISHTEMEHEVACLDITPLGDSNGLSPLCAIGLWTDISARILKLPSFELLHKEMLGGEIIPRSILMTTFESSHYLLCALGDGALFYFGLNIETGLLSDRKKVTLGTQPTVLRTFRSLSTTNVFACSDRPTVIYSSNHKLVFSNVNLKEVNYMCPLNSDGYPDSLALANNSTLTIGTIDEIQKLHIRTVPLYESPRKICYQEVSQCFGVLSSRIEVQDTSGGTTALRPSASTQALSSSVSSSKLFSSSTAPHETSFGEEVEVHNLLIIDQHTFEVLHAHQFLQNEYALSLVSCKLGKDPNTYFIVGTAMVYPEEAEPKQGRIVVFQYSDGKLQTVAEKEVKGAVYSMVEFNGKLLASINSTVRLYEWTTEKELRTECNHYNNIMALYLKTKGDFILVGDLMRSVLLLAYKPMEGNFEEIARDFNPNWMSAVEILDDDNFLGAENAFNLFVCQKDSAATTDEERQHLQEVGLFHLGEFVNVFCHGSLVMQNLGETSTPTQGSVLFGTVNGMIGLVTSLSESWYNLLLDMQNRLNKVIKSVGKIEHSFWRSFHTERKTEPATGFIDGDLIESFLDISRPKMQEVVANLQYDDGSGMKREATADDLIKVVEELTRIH
T2 sequence (Q9UKT9 whole entry): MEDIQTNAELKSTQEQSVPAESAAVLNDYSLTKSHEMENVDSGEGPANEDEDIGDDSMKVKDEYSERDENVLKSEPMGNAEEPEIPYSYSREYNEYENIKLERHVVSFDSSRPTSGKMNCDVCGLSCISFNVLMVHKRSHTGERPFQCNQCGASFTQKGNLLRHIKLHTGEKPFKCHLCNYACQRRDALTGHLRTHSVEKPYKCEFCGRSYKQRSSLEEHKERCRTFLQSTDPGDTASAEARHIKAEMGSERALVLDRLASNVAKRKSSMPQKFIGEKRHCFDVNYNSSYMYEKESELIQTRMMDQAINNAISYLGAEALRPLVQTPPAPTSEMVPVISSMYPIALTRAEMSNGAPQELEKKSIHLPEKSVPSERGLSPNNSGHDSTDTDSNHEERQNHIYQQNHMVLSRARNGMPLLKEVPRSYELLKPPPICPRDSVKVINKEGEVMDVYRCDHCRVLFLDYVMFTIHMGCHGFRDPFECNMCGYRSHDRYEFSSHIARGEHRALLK
T2 sequence (Q96SW2 whole entry): as the sequence (Q96SW2 whole entry) above
T2 sequence (Q16531 whole entry partner): as the sequence (Q16531 whole entry partner) above

SMILES: NCc1ccc2c(c1)CN(C1CCC(=O)NC1=O)C2=O (stereo not drawn) [Compound 1, 3-(5-(aminomethyl)-1-oxoisoindolin-2-yl)piperidine-2,6-dione]
- IC50 (EOL-1): > 30 µM
- IC50 (IM-9): > 30 µM
- IC50 (KG-1; read-out: Absolute IC50): ≤ 0.1 µM
- viability at 9.5 µM (KG-1; [3]): ≤ 30%
- IC50 (OPM-2): > 30 µM
- SALL4 degradation time course (SALL4 [1]): more rapidly and effectively than lenalidomide
- viability at 9.5 µM (MOLP-2; [3]): ≤ 60%
- IC50 (MOLP-2; read-out: Absolute IC50): 0.1 to 1 µM
- % of SALL4 protein reduction (SALL4 [2]): >80%
- viability at 9.5 µM (MOLM-6; [3]): ≤ 60%
- IC50 (MOLM-6; read-out: Absolute IC50): 0.1 to 1 µM
- IC50 (OCI-AML2): > 30 µM
- % of IKZF3 protein reduction (Aiolos (IKZF3)): C (C represents 0-24% of IKZF1 protein reduction)
- survival of the cells (colony formation) (Kelly cells): in most cases inhibited
- IC50 (SU-DHL-1): > 30 µM
